Tests used:
[1] = X-Ray diffraction, crystallinity of extrudates; format: physicochemical; details: excipient extruded alone
Protocol: The crystal structure was characterized by X-Ray diffraction (LabX XRD6000, Shimadzu, Columbia, Md., USA). […] The powdered samples were placed in aluminum holders and measured in the reflection mode from 10 to 40° 2θ. The scanning rate was 5°/min using a sampling pitch of 0.02°. Each sample was measured in duplicate.

[2] = Dissolution test, USP paddle apparatus, UV quantification of active pharmaceutical ingredient release; format: physicochemical; details: water, 37° C., paddle 50 rpm; pure drug powder
Protocol: Pre-mixed, dry powder materials (10% griseofulvin in α-mannitiol or 50% griseofulvin in α-mannitiol) were extruded using a production scale extruder (Leistritz Mikro GL 27-28D, Leistritz, Nuermber, Germany). […] The shear rate was varied on two levels during extrusion by varying the barrel length, the number of die holes and screw configuration. The extrudates were characterized by a dissolution test in accordance to the preliminary experiments (see FIG. 10). The dissolution tests were performed in a paddle apparatus (VK7030, Varian, Cary, N.C., USA) in accordance with the USP at 50 rpm. Six samples of each batch were tested in water at 37° C. as dissolution media. For the dissolution test, the extrudates were cut in small pieces of approximately 2 mg. The active pharmaceutical ingredient release was quantified with a UV-photometer (DU 640, Beckman, Fellerton, USA; Cary 300, Varian, Victoria, Australia) using different wavelengths (griseofulvin 296 nm, phenytoin 220 nm and spironolactone 243 nm) for 120 min using a cuvette with a 50 mm path length.

Compound	crystallization after extrusion, in words [1]	further results
C[C@H](O)C(=O)O [L-(+)-lactic acid, L-(+)-Lactic acid]		time within which crystallization was completed [1]: ≤ 24 h
OC[C@@H](O)[C@@H](O)[C@H](O)[C@@H](O)CO [Sorbitol, sorbitol]	still predominantly amorphous after 24 h	
OC[C@@H](O)[C@@H](O)[C@@H](O)CO [adonitol]	rapid crystallization	
COC1=CC(=O)C[C@@H](C)[C@]12Oc1c(Cl)c(OC)cc(OC)c1C2=O [griseofulvin]		time to attain 50% release [2]: six

— patent US20100222311A1, “SOLID FORMULATIONS OF CRYSTALLINE COMPOUNDS” (PURDUE RESEARCH FOUNDATION, priority 2007, published 2010)
